Laboratory results reported in PMC539285, “Anti-Plasmodium activity of ceramide analogs” (Malaria Journal, 2004).

Key:
[1] = system: P. falciparum sphingomyelin synthase activity; assay: Sphingomyelin synthase activity assay in trophozoite cultures (NBD-C6-ceramide); format: cell-based, Plasmodium falciparum; settings: trophozoites 20-30 h, 0-500 μM drug, 10 μM NBD-C6-ceramide, 60 min, 37°C
Description: SPM synthase activity was measured as described by Haldar et al.. Briefly, assays were performed on P. falciparum cultures at the trophozoite stage (20–30 h old parasites). 400 μl of culture (1 × 10^8 parasites) were incubated for 60 min at 37°C with 10 μM NBD-C6-ceramide and 0 to 500 μM PPMP or AD2646. Cells were then lysed by freezing and thawing of the culture. Lipids were extracted by a modification of the method of Bligh and Dyer. To each sample, three volumes of a CH3OH/CHCl3 mixture (1:2, v:v) were added and the mixture vortexed for one min. Organic and aqueous phases were separated by centrifugation (12,000 × g, five min) and the organic phase was dried. Lipids were dissolved in 15 μl ethanol and analysed by thin layer chromatography on HPTLC plates (Silica gel 60 F254, Merck, Darmstadt, Germany) in CH3OH/[…]/NH4OH (75:25:4, v:v:v). For qualitative analyses, the fluorescent lipids were detected under UV and for quantitative analyses, the fluorescent lipid spots were scraped, eluted in one ml methanol and quantified at an excitation of 470 nm and an emission of 530 nm in a spectrofluorometer. The percentage of SPM synthase activity for each drug concentration was determined by comparison of the fluorescence quantified in the analog-treated culture with that in the control culture (without drug).

[2] = system: erythrocytes; assay: Lysis of normal and infected erythrocytes; format: cell-based, human; settings: 250 nM, 48 hours
Description: By their lipidic nature, these analogs might act through a detergent effect that could lead to lysis or modification of the integrity of infected-erythrocyte membranes. This apparently is not the case. No significant lysis of normal erythrocytes was observed after 48 hous of incubation with concentrations of analogs up to 10 μM (data not shown).

[3] = system: P. falciparum strain K1; assay: Anti-Plasmodium activity, strain K1; format: cell-based
Description: (§1) P. falciparum strains (FcB1/Colombia, K1/Thailand, F32/Tanzania, W2/Indochina) were maintained in continuous culture on human erythrocytes in RPMI medium containing 7% (v/v) heat-inactivated human serum under an atmosphere of 3% CO2, 6% O2, 91% N2, at 37°C, as described by Trager and Jensen. Parasite synchronization was performed successively by treatment with 5% (w/v) sorbitol and by concentration in gelatin solution as previously described.
Drug susceptibility assays were performed using a modification of the semi automated microdilution technique of Desjardins et al.. Stock solutions of test compounds were prepared in DMSO. Drug solutions were serially diluted twofold with 100 μl culture medium in 96-well plates. Asynchronous parasite cultures (100 μl, 1 % parasitemia and 1 % final hematocrite) were added to each well and incubated for 24 hours at 37°C prior to the addition of 0.5 μCi of [^3H] hypoxanthine (Amersham, France, 1 to 5 Ci.mmol/ml) per well. After a further incubation of 24 hour, plates were frozen and thawed. Cell lysates were then collected onto glass-filter papers and counted in a liquid scintillation spectrometer. The growth inhibition for each drug concentration was determined by comparison of the radioactivity incorporated in the treated culture with that in the control culture (having the same final % of DMSO) maintained on the same plate. […]

[4] = system: P. falciparum synchronized cultures; assay: Parasite stage-specific inhibitory effects and reversibility (Giemsa-stained smears); format: cell-based, Plasmodium falciparum; settings: for recovery of parasite growth after drug removal: drug removed after 11 hours
Description: Synchronized cultures (1–2% parasitemia) at the ring stage (0–10 hours old parasites), the trophozoite stage (25–35 hours old parasites) and the schizonte stage (40–48 hours old parasites) were maintained in the presence of drug concentrations in the vicinity of IC50 values. Aliquots were removed at the indicated times, washed three times with culture medium and maintained in culture in the absence or in the presence of a given drug. […] Parasitaemias were determined by counting 3,000 cells for each sample. Controls consisted of parasites incubated with DMSO instead of drugs processed in the same way.
To investigate the cytostatic or cytotoxic effects of AD2646 on the parasite development, cultures at the ring stage (0–10 hours), the trophozoite stage (25–35 hours) and the schizonte stage (40–48 hours) were incubated with 30, 100 or 250 nM of AD2646 for 24.5 hours for the ring stage, for 11 hours for the trophozoite stage, and for 14 hours for the schizonte stage. Aliquots were then taken, washed and incubated in the absence or the presence of drug for a further 13 hours to 24 hours depending upon the parasite stage tested (see Figure 5). Parasitaemia and parasite stages were determined on Giemsa-stained smears at time of aliquot removal and after the subsequent incubation.

[5] = system: malaria-induced anion channel; assay: Malaria-induced anion channel activity, whole-cell patch-clamp; format: cell-based, Plasmodium falciparum; settings: infected erythrocytes, 24 hours, 250 nM AD2646 or 10 μM PPMP, whole-cell patch-clamp (unpublished data)
From the text: Sphingolipids preferentially interact with cholesterol in membranes, especially in detergent-resistant microdomains (DRMs or rafts). Rafts have been described in Plasmodium and are involved, at least, in the uptake of erythrocyte raft proteins and maintenance of the parasitophorous vacuole containing the parasite, inside the erythrocyte. This interaction implies : 1) van der Waals interactions between the saturated acyl chain and sphingoid moiety of sphingolipids and the rigid planar tetracyclic rings of cholesterol and 2) hydrogen bonds between the 3-β hydroxyl group of cholesterol and the fatty acyl carbonyl group resulting from the amide linkage with the sphingoid moiety. The amide-linked fatty acid function seems to have a profound stabilizing effect on cholesterol-sphingolipid interactions. It could be hypothesized that in a membrane context, methylene analogs might have a destabilizing effect on the cholesterol-sphingolipid interactions and, in consequence, modifications of membrane properties. Indeed, P. falciparum growth is characterized by a setting up of new permeabilities of the infected-erythrocyte membrane. Although the biochemical nature of these new permeabilities is still unknown, they have been characterized from an electrophysiological point of view and involve a malaria-induced anion channel. […]

[6] = system: chloroquine-resistant strain FcB1 of P. falciparum; assay: Anti-Plasmodium activity, [3H]hypoxanthine microdilution on asynchronous cultures; format: cell-based, Plasmodium falciparum
Description: as §1
Drug susceptibility assays were performed using a modification of the semi automated microdilution technique of Desjardins et al.. Stock solutions of test compounds were prepared in DMSO. Drug solutions were serially diluted twofold with 100 μl culture medium in 96-well plates. Asynchronous parasite cultures (100 μl, 1 % parasitemia and 1 % final hematocrite) were added to each well and incubated for 24 hours at 37°C prior to the addition of 0.5 μCi of [^3H] hypoxanthine (Amersham, France, 1 to 5 Ci.mmol/ml) per well. After a further incubation of 24 hour, plates were frozen and thawed. Cell lysates were then collected onto glass-filter papers and counted in a liquid scintillation spectrometer. The growth inhibition for each drug concentration was determined by comparison of the radioactivity incorporated in the treated culture with that in the control culture (having the same final % of DMSO) maintained on the same plate. The concentration causing 50% growth inhibition (IC50) and 90% growth (IC90) were obtained from the drug concentration-response curve and the results were expressed as the means ± the standard deviations determined from several independent experiments.

[7] = system: FcB1 strain; assay: Drug combination with antimalarial drugs, strain FcB1; format: cell-based, Plasmodium falciparum; settings: FcB1 strain (data not shown)
From the text: (§2) Compound AD2646 (Figure 1) was selected to further investigate the biological effects of methylene analogs on parasite development.

[8] = system: CQ-resistant strain K1; assay: Drug combination with antimalarial drugs, strain K1; format: cell-based, Plasmodium falciparum; settings: CQ-resistant strain K1 (data not shown)
From the text: as §2

CCCCCCCCCCCCCCN[C@H](CO)[C@H](O)c1ccc([N+](=O)[O-])cc1 [AD2646]
inhibition of SPM synthase activity (shape of curve) [1]: biphasic inhibition curve that superimposes on the PPMP inhibition curve
parasite growth [2]: inhibiting parasite growth totally
lysis of infected erythrocytes ([2]; infected cultures, Giemsa-stained smears): no preferential lysis of infected-erythrocytes
IC50 [3]: 45 nM
parasite growth from the ring stage ([4]; ring stage, 100 and 250 nM, no recovery after drug removal at 24 hours): irreversibly blocked at the young trophozoite stage
development of the ring stage ([4]; ring stage, continuous incubation with 30 nM): slightly affected
development of the schizont stage ([4]; schizont stage, 30 nM): a slight effect was only observed
parasite growth from the schizont stage ([4]; schizont stage, 100 nM): irreversibly blocked
recovery of parasite growth after drug removal ([4]; trophozoite stage, 30 nM): Only a partial recovery of parasite growth
recovery of parasite growth after drug removal ([4]; trophozoite stage, 100 nM): No recovery of parasite growth
development of the trophozoite stage ([4]; trophozoite stage, continuous incubation with 30 nM): completely blocked development
induced anion channel activity [5]: did not modulate significantly the induced channel activity
efficiency in inhibiting parasite development relative to PPMP ([6]; AD2646 versus PPMP): about 300 times
IC90 ([6]; Plasmodium falciparum, 48 h, Figure 3, series B, strain FcB1, 90% growth inhibition, read-out: CI90 (the source's name)): 57.7 ± 3.2 nM
IC50 ([6]; Plasmodium falciparum, Figure 3, series B (methylene or thiourea linkage), strain FcB1, read-out: CI50 (the source's name)): 30.8 ± 4.6 nM
drug combination effect with artemether [7]: non-synergistic and non-antagonistic effect
drug combination effect with mefloquine [7]: non-synergistic and non-antagonistic effect
drug combination effect with CQ [8]: non-synergistic and non-antagonistic effect
